These are literature values, as cited in patent US20250041478A1, “FIBROUS POLYPEPTIDE-BASED BIOSCAFFOLD DELIVERY OF THERAPEUTICS TO NEURAL CELLS” (priority 2023, published 2025).

For this data set the following is noted: in vivo.

Structures can show the parent of a compound that is named as a salt.

Take `CN(C)c1ccc(O)c2c1C[C@H]1C[C@H]3[C@H](N(C)C)C(O)=C(C(N)=O)C(=O)[C@@]3(O)C(O)=C1C2=O` [MH, minocycline hydrochloride]: the plasma half-life is 11 to 23 h.
